# Data as given in PubChem BioAssay AID1918947 (Molecular Pharmacology Branch, DTP, NCI, 2023).
# Values joined by “and” are separate entries in the source; they are usually repeats but may differ in a detail not shown here. Equal values may be shown once.
# Tested on: A498 complex spheroid viability
# Assay: Anticancer human tumor A498 cell line growth inhibition;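 also: spheroids exposed to agents for seven days before readout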;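 as to viability, T/C: 100% = DMSO vehicle-treated spheroids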
# Settings: for viability, T/C: stronger effect = lower value
# In short: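 Complex spheroids of tumor cells with HUVEC and human MSCs, exposed to iadademstat combined with other agents. Each agent tested in half-log steps from near clinical Cmax (else 10 microM top), DMSO ≤0.25%.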
smiles,measurement,setting,value
CC(C)CC(NC(=O)C(Cc1ccccc1)NC(=O)c1cnccn1)B(O)O (centres undefined) + NC1CCC(NC2CC2c2ccccc2)CC1,IC50,"curve of first compound, second compound 0.1 µM",0.966 nM
same,IC50,"curve of first compound, second compound 0.316 µM",0.876 nM
same,IC50,"curve of first compound, second compound 1 µM",0.765 nM
same,IC50,"curve of first compound, second compound 3.16 µM",0.635 nM
same,IC50,"curve of first compound, second compound 10 µM",0.527 nM
same,"viability, T/C","second compound 0.1 µM, first compound 0.000316 µM",82.1%
same,"viability, T/C","second compound 0.1 µM, first compound 0.001 µM",49%
same,"viability, T/C","second compound 0.1 µM, first compound 0.00316 µM",3.94%
same,"viability, T/C","second compound 0.1 µM, first compound 0.01 µM",1.24%
same,"viability, T/C","second compound 0.1 µM, first compound 0.0316 µM",0.46%
same,"viability, T/C","second compound 0.1 µM, first compound 0.1 µM",0.48%
same,"viability, T/C","second compound 0.316 µM, first compound 0.000316 µM",90.5%
same,"viability, T/C","second compound 0.316 µM, first compound 0.001 µM",44.7%
same,"viability, T/C","second compound 0.316 µM, first compound 0.00316 µM",3.08%
same,"viability, T/C","second compound 0.316 µM, first compound 0.01 µM",1.09%
same,"viability, T/C","second compound 0.316 µM, first compound 0.0316 µM",0.41%
same,"viability, T/C","second compound 0.316 µM, first compound 0.1 µM",0.97%
same,"viability, T/C","second compound 1 µM, first compound 0.000316 µM",84.5%
same,"viability, T/C","second compound 1 µM, first compound 0.001 µM",39.5%
same,"viability, T/C","second compound 1 µM, first compound 0.00316 µM",2.52%
same,"viability, T/C","second compound 1 µM, first compound 0.01 µM",0.84%
same,"viability, T/C","second compound 1 µM, first compound 0.0316 µM",1.13%
same,"viability, T/C","second compound 1 µM, first compound 0.1 µM",0.61%
same,"viability, T/C","second compound 3.16 µM, first compound 0.000316 µM",78.5%
same,"viability, T/C","second compound 3.16 µM, first compound 0.001 µM",31.5%
same,"viability, T/C","second compound 3.16 µM, first compound 0.00316 µM",1.91%
same,"viability, T/C","second compound 3.16 µM, first compound 0.01 µM",0.54%
same,"viability, T/C","second compound 3.16 µM, first compound 0.0316 µM",0.31%
same,"viability, T/C","second compound 3.16 µM, first compound 0.1 µM",0.35%
same,"viability, T/C","second compound 10 µM, first compound 0.000316 µM",67.6%
same,"viability, T/C","second compound 10 µM, first compound 0.001 µM",28%
same,"viability, T/C","second compound 10 µM, first compound 0.00316 µM",1.67%
same,"viability, T/C","second compound 10 µM, first compound 0.01 µM",0.4%
same,"viability, T/C","second compound 10 µM, first compound 0.0316 µM",0.26%
same,"viability, T/C","second compound 10 µM, first compound 0.1 µM",0.41%
Nc1ncn(C2CC(O)C(CO)S2)c(=O)n1 (centres undefined),"viability, T/C",compound 0.000949 µM,105% and 109%
same,"viability, T/C",compound 0.003 µM,104% and 117%
same,"viability, T/C",compound 0.00949 µM,99.6% and 102%
same,"viability, T/C",compound 0.03 µM,85.2% and 89.5%
same,"viability, T/C",compound 0.0949 µM,59.4% and 70%
same,"viability, T/C",compound 0.3 µM,33.8% and 40%
same,IC50,curve of compound,144 nM and 202 nM
CC(C)c1c(-c2ccccc2)nc2c(C#N)c[nH]n2c1=O,"viability, T/C",compound 0.0316 µM,101% and 102%
same,"viability, T/C",compound 0.1 µM,104% and 102%
same,"viability, T/C",compound 0.316 µM,101% and 104%
same,"viability, T/C",compound 1 µM,103% and 97.9%
same,"viability, T/C",compound 3.16 µM,102% and 107%
same,"viability, T/C",compound 10 µM,101% and 107%
same,IC50,curve of compound,> 10000 nM
